For one test, the system named is MV4-11 cells. In words: Inhibition of MV4-11 cell proliferation (CellTiterGlo, 72 h). The following applies: Homo sapiens; 72 h growth inhibition; uncertainty ±20%. The format is cell-based. The procedure: MV4-11 cells cannot grow and survive without active FLT3ITD.
To measure proliferation inhibition by test compounds, the luciferase based CellTiterGlo reagent (Promega), which quantifies total cell number based on total cellular ATP concentration, was used. Cells are plated at 10,000 cells per well in 100 ul of in RPMI media containing penn/strep, 10% FBS and 1 ng/ml GM-CSF or 1 ng/ml IL-3 for MV4-11 and Baf3 cells respectively.
Compound dilutions or 0.1% DMSO (vehicle control) are added to cells and the cells are allowed to grow for 72 hours at standard cell growth conditions (37° C., 5% CO2). For activity measurements in MV4-11 cells grown in 50% plasma, cells were plated at 10,000 cells per well in a 1:1 mixture of growth media and human plasma (final volume of 100 μL). To measure total cell growth an equal volume of CellTiterGlo reagent was added to each well, according to the manufacturer's instructions, and luminescence was quantified. Total cell growth was quantified as the difference in luminescent counts (relative light units, RLU) of cell number at Day 0 compared to total cell number at Day 3 (72 hours of growth and/or compound treatment). One hundred percent inhibition of growth is defined as an RLU equivalent to the Day 0 reading. Zero percent inhibition was defined as the RLU signal for the DMSO vehicle control at Day 3 of growth. All data points are an average of triplicate samples. […] Inhibition and IC50 data analysis was done with GraphPad Prism using a non-linear regression fit with a multiparamater, sigmoidal dose-response (variable slope) equation.
MV4-11 cells express the FLT3 internal tandem duplication mutation, and thus are entirely dependent upon FLT3 activity for growth. […] In contrast, the Baf3 cell proliferation is driven by the cytokine IL-3 and thus are used as a non-specific toxicity control for test compounds.

In another test the target is T1, wild-type FLT3 receptor (Homo sapiens, UniProt P36888).
T1 construct: host or cells: Baf3 (murine B cell lymphoma line), stably transfected
T1 sequence (P36888 27-993): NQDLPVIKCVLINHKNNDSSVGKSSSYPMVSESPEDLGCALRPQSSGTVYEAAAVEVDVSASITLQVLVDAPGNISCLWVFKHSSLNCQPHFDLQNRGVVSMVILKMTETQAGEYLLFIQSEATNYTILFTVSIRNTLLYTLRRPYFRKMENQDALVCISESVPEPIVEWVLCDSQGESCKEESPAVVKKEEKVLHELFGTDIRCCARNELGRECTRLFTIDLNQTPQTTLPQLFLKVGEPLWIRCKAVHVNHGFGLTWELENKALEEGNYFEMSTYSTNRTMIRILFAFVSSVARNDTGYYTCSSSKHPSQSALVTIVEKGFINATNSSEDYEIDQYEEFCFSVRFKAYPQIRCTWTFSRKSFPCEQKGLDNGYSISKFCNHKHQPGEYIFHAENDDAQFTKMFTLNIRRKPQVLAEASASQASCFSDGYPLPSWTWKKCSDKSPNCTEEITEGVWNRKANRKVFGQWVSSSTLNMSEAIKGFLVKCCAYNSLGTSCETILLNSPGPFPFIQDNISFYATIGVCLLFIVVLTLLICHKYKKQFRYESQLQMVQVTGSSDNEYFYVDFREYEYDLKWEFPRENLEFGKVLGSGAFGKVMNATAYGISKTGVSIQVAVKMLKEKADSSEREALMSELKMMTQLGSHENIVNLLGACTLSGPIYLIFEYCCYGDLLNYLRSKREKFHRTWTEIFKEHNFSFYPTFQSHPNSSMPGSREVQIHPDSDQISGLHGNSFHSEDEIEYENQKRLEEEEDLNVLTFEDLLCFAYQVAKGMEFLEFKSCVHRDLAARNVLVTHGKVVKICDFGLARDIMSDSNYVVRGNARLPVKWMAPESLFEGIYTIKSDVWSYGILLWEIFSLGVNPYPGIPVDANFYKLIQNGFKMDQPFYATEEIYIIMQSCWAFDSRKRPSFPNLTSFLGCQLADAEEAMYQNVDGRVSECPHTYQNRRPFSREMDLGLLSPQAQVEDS
In words: Cell-based FLT3 receptor ELISA (FLT ligand-induced phosphorylation in Baf3 FLT3 cells). As to conditions: 100 ng/mL Flt ligand, uncertainty ±20%. The procedure: Specific cellular inhibition of FLT ligand-induced wild-type FLT3 phosphorylation was measured in the following manner: Baf3 FLT3 cells overexpressing the FLT3 receptor were obtained from Dr. Michael Heinrich (Oregon Health and Sciences University). The Baf3 FLT3 cell lines were created by stable transfection of parental Baf3 cells (a murine B cell lymphoma line dependent on the cytokine IL-3 for growth) with wild-type FLT3. Cells were selected for their ability to grow in the absence of IL-3 and in the presence of FLT3 ligand. Baf3 cells were maintained in RPMI 1640 with 10% FBS, penn/strep and 10 ng/ml FLT ligand at 37° C., 5% CO2. To measure direct inhibition of the wild-type FLT3 receptor activity and phosphorylation a sandwich ELISA method was developed similar to those developed for other RTKs (see Sadick, M D, Sliwkowski, M X, Nuijens, A, Bald, L, Chiang, N, Lofgren, J A, Wong W L T. Analysis of Heregulin-Induced ErbB2 Phosphorylation with a High-Throughput Kinase Receptor Activation Enzyme-Linked Immunsorbent Assay, Analytical Biochemistry. 1996; 235:207-214 and Baumann C A, Zeng L, Donatelli R R, Maroney A C. Development of a quantitative, high-throughput cell-based enzyme-linked immunosorbent assay for detection of colony-stimulating factor-1 receptor tyrosine kinase inhibitors. J Biochem Biophys Methods. 2004; 60:69-79.). 200 μL of Baf3FLT3 cells (1×10^6 /mL) were plated in 96 well dishes in RPMI 1640 with 0.5% serum and 0.01 ng/mL IL-3 for 16 hours prior to 1 hour compound or DMSO vehicle incubation. Cells were treated with 100 ng/mL Flt ligand (R&D Systems Cat# 308-FK) for 10 min. at 37° C. Cells were pelleted, washed and lysed in 100 ul lysis buffer (50 mM Hepes, 150 mM NaCl, 10% Glycerol, 1% Triton-X-100, 10 mM NaF, 1 mM EDTA, 1.5 mM MgCl2, 10 mM NaPyrophosphate) supplemented with phosphatase (Sigma Cat# P2850) and protease inhibitors (Sigma Cat #P8340). Lysates were cleared by centrifugation at 1000×g for 5 minutes at 4° C. Cell lysates were transferred to white wall 96 well microtiter (Costar #9018) plates coated with 50 ng/well anti-FLT3 antibody (Santa Cruz Cat# sc-480) and blocked with SeaBlock reagent (Pierce Cat#37527). Lysates were incubated at 4° C. for 2 hours. Plates were washed 3× with 200 ul/well PBS/0.1% Triton-X-100. Plates were then incubated with 1:8000 dilution of HRP-conjugated anti-phosphotyrosine antibody (Clone 4G10, Upstate Biotechnology Cat#16-105) for 1 hour at room temperature. Plates were washed 3× with 200 ul/well PBS/0.1% Triton-X-100. Signal detection with Super Signal Pico reagent (Pierce Cat#37070) was done according to manufacturer's instruction with a Berthold microplate luminometer. All data points are an average of triplicate samples. […] Inhibition and IC50 data analysis was done with GraphPad Prism using a non-linear regression fit with a multiparamater, sigmoidal dose-response (variable slope) equation.

In test [1] the target is T2, isolated kinase domain of the human FLT3 receptor (a.a. 571-993) (Homo sapiens, UniProt P36888).
T2 construct: human FLT3 receptor (a.a. 571-993)
T2 sequence (P36888 571-993): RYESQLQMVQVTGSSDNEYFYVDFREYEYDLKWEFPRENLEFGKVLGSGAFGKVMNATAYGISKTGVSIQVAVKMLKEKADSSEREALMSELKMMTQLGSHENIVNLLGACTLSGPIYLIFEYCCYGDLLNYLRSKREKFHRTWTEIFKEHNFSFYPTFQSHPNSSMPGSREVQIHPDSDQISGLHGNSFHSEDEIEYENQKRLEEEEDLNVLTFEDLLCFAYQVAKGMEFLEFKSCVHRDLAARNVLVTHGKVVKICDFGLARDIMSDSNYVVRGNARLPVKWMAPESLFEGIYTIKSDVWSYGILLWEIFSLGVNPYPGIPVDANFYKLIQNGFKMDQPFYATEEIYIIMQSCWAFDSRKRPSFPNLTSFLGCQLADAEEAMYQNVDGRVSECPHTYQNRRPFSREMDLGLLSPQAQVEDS
Description: FLT3 fluorescence polarization kinase assay. The format is biochemical. The following applies: 150 uM ATP; uncertainty ±10%. The procedure: The FLT3 FP assay utilizes the fluorescein-labeled phosphopeptide and the anti-phosphotyrosine antibody included in the Panvera Phospho-Tyrosine Kinase Kit (Green) supplied by Invitrogen. When FLT3 phosphorylates polyGlu4Tyr, the fluorescein-labeled phosphopeptide is displaced from the anti-phosphotyrosine antibody by the phosphorylated poly Glu4Tyr, thus decreasing the FP value. The FLT3 kinase reaction is incubated at room temperature for 30 minutes under the following conditions: 10 nM FLT3 571-993, 20 ug/mL poly Glu4Tyr, 150 uM ATP, 5 mM MgCl2, 1% compound in DMSO. The kinase reaction is stopped with the addition of EDTA. The fluorescein-labeled phosphopeptide and the anti-phosphotyrosine antibody are added and incubated for 30 minutes at room temperature.
All data points are an average of triplicate samples. Inhibition and IC50 data analysis was done with GraphPad Prism using a non-linear regression fit with a multiparamater, sigmoidal dose-response (variable slope) equation.
On the technique in general: In fluorescence polarisation assays a small probe gives low polarisation when free and higher when bound to something large.

As to `COc1cc2ncnc(C3CCN(C(=O)Nc4ccc(Cl)cc4)CC3)c2cc1OC` [Example 49, 4-(6,7-Dimethoxy-quinazolin-4-yl)-piperidine-1-carboxylic acid (4-chloro-phenyl)-amide], the IC50 in the test on MV4-11 cells is 7000 nM; at wild-type FLT3 receptor, more than 3000 nM.
On to `COc1cc2ncnc(C3CCN(C(=O)Nc4ccc(C5CCNCC5)cc4)CC3)c2cc1OC` [Example 64, 4-(6,7-Dimethoxy-quinazolin-4-yl)-piperidine-1-carboxylic acid (4-piperidin-4-yl-phenyl)-amide], for which the 50% inhibitory concentration (IC50) in the test with MV4-11 cells is 330 nM; on wild-type FLT3 receptor it was 357 nM.
In the case of `O=C(Nc1ccc(N2CCOCC2)cc1)N1CCC(c2ncnc3cc(OCCCN4CCNCC4)ccc23)CC1` [Example 123, 4-[7-(3-Piperazin-1-yl-propoxy)-quinazolin-4-yl]-piperidine-1-carboxylic acid (4-morpholin-4-yl-phenyl)-amide], the IC50 was found to be 8 nM in test [1] and 2 nM against wild-type FLT3 receptor.
As to `O=C(Nc1ccc(N2CCOCC2)cc1)N1CCC(c2ncnc3cc(N4CC[C@@H](O)C4)ccc23)CC1` [Example 126, (R)-4-[7-(3-Hydroxy-pyrrolidin-1-yl)-quinazolin-4-yl]-piperidine-1-carboxylic acid (4-morpholin-4-yl-phenyl)-amide], the IC50 in the test with MV4-11 cells was 96 nM; in test [1], 25 nM.
As to `CN1CCC(Oc2ccc3c(C4CCN(C(=O)Nc5ccc(N6CCOCC6)cc5)CC4)ncnc3c2)CC1` [Example 127, 4-[7-(1-Methyl-piperidin-4-yloxy)-quinazolin-4-yl]-piperidine-1-carboxylic acid (4-morpholin-4-yl-phenyl)-amide], the values for the IC50 (in test [1]; against wild-type FLT3 receptor) were 260 nM and 37 nM, respectively.
Turning to `O=C(Nc1ccc(N2CCCC2)cc1)N1CCC(c2ncnc3cc(N4CC[C@H](O)C4)ccc23)CC1` [Example 129, (S)-4-[7-(3-Hydroxy-pyrrolidin-1-yl)-quinazolin-4-yl]-piperidine-1-carboxylic acid (4-pyrrolidin-1-yl-phenyl)-amide], the IC50 came out at 9 nM in the test with MV4-11 cells and 1 nM in test [1].
For `COC[C@H]1CCCN1c1ccc2c(C3CCN(C(=O)Nc4ccc(N5CCOCC5)cc4)CC3)ncnc2c1` [Example 130, (R)-4-[7-(2-Methoxymethyl-pyrrolidin-1-yl)-quinazolin-4-yl]-piperidine-1-carboxylic acid (4-morpholin-4-yl-phenyl)-amide], the IC50 in test [1] turned out to be 626 nM; against wild-type FLT3 receptor, 586 nM.
Take `CN(C)C(=O)N1CCN(c2ccc3c(C4CCN(C(=O)Nc5ccc(N6CCCC6)cc5)CC4)ncnc3c2)CC1` [Example 168, 4-{4-[1-(4-Pyrrolidin-1-yl-phenylcarbamoyl)-piperidin-4-yl]-quinazolin-7-yl}-piperazine-1-carboxylic acid dimethylamide]: the IC50 with MV4-11 cells was 17 nM; in test [1], 3 nM.

As a reminder, the IC50 is the concentration that gives 50% inhibition. Low values mean greater potency in that assay, high ones weaker potency in that assay.

These data come from patent US20070004660A1, “Synergistic Modulation of Flt3 Kinase Using Alkylquinolines and Alkylquinazolines” (priority 2005, published 2007).
